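Following 48 hours of exposure in 96-well plates, responses at five concentrations were used to interpolate endpoints linearly. GI50 = concentration required for 50% inhibition of growth.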 Active and inactive are the calls of the source. No stated cut-off is given here; in the data, active = GI50 up to about 1.1 µM and inactive = higher. Where a SMILES comes first, the peptide text is derived from it. The star is where a group is joined. Cbz = O=C(OCc1ccccc1)*; NHNH2 = NN*
Key:
Assay in all cases: growth of human tumour cells (NCI), 48 h
SF-268 = system: SF-268
HOP-62 = system: HOP-62
UACC-62 = system: UACC-62
786-0 = system: 786-0
CCRF-CEM = system: CCRF-CEM
UACC-257 = system: UACC-257
MOLT-4 = system: MOLT-4
SN12C = system: SN12C
HL-60 = system: HL-60
KM12 = system: KM12
HT-29 = system: HT-29
MDA-MB-231 = system: MDA-MB-231
SW-620 = system: SW-620
OVCAR-5 = system: OVCAR-5
U-251 = system: U-251
NCI-H460 = system: NCI-H460
HCT-116 = system: HCT-116
SF-539 = system: SF-539
NCI-H522 = system: NCI-H522

Row | SMILES | GI50 (SF-268) | GI50 (HOP-62) | GI50 (UACC-62) | GI50 (786-0) | GI50 (CCRF-CEM) | GI50 (UACC-257) | GI50 (MOLT-4) | GI50 (SN12C) | GI50 (HL-60) | GI50 (KM12) | GI50 (HT-29) | GI50 (MDA-MB-231) | GI50 (SW-620) | GI50 (OVCAR-5) | GI50 (U-251) | GI50 (NCI-H460) | GI50 (HCT-116) | GI50 (SF-539) | GI50 (NCI-H522)
1 | COc1ccc(C2=C(OC(=O)N(C)C)c3cccn3-c3cc(Cl)ccc3S2)cc1 | > 10 µM (inactive) | > 10 µM (inactive) | > 10 µM (inactive) | > 10 µM (inactive) | 8.07 µM (inactive) | > 10 µM (inactive) | 7.89 µM (inactive) | > 10 µM (inactive) | 6.1 µM (inactive) | > 10 µM (inactive) | > 10 µM (inactive) | > 10 µM (inactive) | > 10 µM (inactive) |  |  |  |  |  | 
2 | OC1(c2ccc(Cl)cc2)c2c(ccc3c2OCO3)C2=NCCN21 (configuration not stated) | 45 µM (inactive) | 58.3 µM (inactive) | 19 µM (inactive) | 62.2 µM (inactive) | 37.9 µM (inactive) | 19.1 µM (inactive) | 40.1 µM (inactive) | 53.7 µM (inactive) | 38.8 µM (inactive) | 19.6 µM (inactive) | 29.6 µM (inactive) | 28.4 µM (inactive) | 97.9 µM (inactive) | 65.3 µM (inactive) | 44.9 µM (inactive) | 40.6 µM (inactive) | 36.8 µM (inactive) | 36.1 µM (inactive) | 
3 | COc1cc(/C=C2\N=C(c3ccccc3)N(c3ccc(S(=O)(=O)Nc4nccs4)cc3)C2=O)ccc1O | 51.9 µM (inactive) | 61.8 µM (inactive) | 43.9 µM (inactive) | > 100 µM (inactive) | 70.5 µM (inactive) | > 100 µM (inactive) | > 100 µM (inactive) | > 100 µM (inactive) | 51.2 µM (inactive) | > 100 µM (inactive) | 59.7 µM (inactive) |  | 77.6 µM (inactive) | > 100 µM (inactive) | 75.5 µM (inactive) | > 100 µM (inactive) | 70.3 µM (inactive) | 79.4 µM (inactive) | 50.4 µM (inactive)
4 | CCCCNC(=O)Nc1c(C(N)=O)c2n(c1C(=O)OCC)CCCCC2 | > 100 µM (inactive) | > 100 µM (inactive) | > 100 µM (inactive) | > 100 µM (inactive) | > 100 µM (inactive) | > 100 µM (inactive) | > 100 µM (inactive) |  | > 100 µM (inactive) | > 100 µM (inactive) | > 100 µM (inactive) | 21.3 µM (inactive) | > 100 µM (inactive) |  | > 100 µM (inactive) | > 100 µM (inactive) | > 100 µM (inactive) | > 100 µM (inactive) | 
5 | Cc1nn(-c2ccccc2)c(C)c1/C=N/NC(=O)c1sc(=S)n(-c2ccccc2)c1N | 5.22 µM (inactive) | 9.84 µM (inactive) | 4.62 µM (inactive) | 3.78 µM (inactive) | 5.16 µM (inactive) | 4.9 µM (inactive) | 5.58 µM (inactive) | 6.28 µM (inactive) | 20.5 µM (inactive) | 6.05 µM (inactive) | 2.69 µM (inactive) | 2.18 µM (inactive) | 45.5 µM (inactive) | 5.52 µM (inactive) | 4.7 µM (inactive) | 3.08 µM (inactive) | 4.5 µM (inactive) | 2.39 µM (inactive) | 
6 | CC(C)CNC(=O)Cn1c2c(c3ccccc31)CCCC2 | 37.5 µM (inactive) | 54.3 µM (inactive) | 50.1 µM (inactive) | 20.7 µM (inactive) | 56.4 µM (inactive) | > 100 µM (inactive) | 0.743 µM (active) | > 100 µM (inactive) | 34 µM (inactive) |  | > 100 µM (inactive) |  | > 100 µM (inactive) | > 100 µM (inactive) |  | 64.1 µM (inactive) | 27.8 µM (inactive) | > 100 µM (inactive) | 
7 | CCOC(O)(NC(=O)C(C(F)(F)F)C(F)(F)F)C(F)(F)F (configuration not stated) | > 100 µM (inactive) |  |  | > 100 µM (inactive) | > 100 µM (inactive) | > 100 µM (inactive) | > 100 µM (inactive) | > 100 µM (inactive) | > 100 µM (inactive) |  | > 100 µM (inactive) |  | > 100 µM (inactive) | > 100 µM (inactive) | > 100 µM (inactive) |  | > 100 µM (inactive) | > 100 µM (inactive) | 
8 | COC(=O)c1c(C)[nH]c2c1cc(O)c1nc(C)c(C)nc12 | 49.2 µM (inactive) | 18.7 µM (inactive) | 43 µM (inactive) | > 100 µM (inactive) | > 100 µM (inactive) | > 100 µM (inactive) | > 100 µM (inactive) | > 100 µM (inactive) | 5.77 µM (inactive) | > 100 µM (inactive) | > 100 µM (inactive) |  | > 100 µM (inactive) | 76.7 µM (inactive) | 60.3 µM (inactive) | > 100 µM (inactive) | 42.2 µM (inactive) | 34.3 µM (inactive) | 74.8 µM (inactive)
9 | Cn1c2c(c3ccccc31)CC(=O)N1CCCC(C1)CC21OCCO1 (configuration not stated) | > 100 µM (inactive) | > 100 µM (inactive) | > 100 µM (inactive) | > 100 µM (inactive) | > 100 µM (inactive) | > 100 µM (inactive) | > 100 µM (inactive) | 38.2 µM (inactive) | > 100 µM (inactive) | > 100 µM (inactive) | > 100 µM (inactive) | > 100 µM (inactive) | > 100 µM (inactive) | > 100 µM (inactive) | > 100 µM (inactive) | > 100 µM (inactive) | 41.7 µM (inactive) |  | 
10 | O=S(=O)(O)c1cc(S(=O)(=O)O)c2c(/N=N/c3ccccc3)c(O)ccc2c1 | > 100 µM (inactive) | > 100 µM (inactive) | > 100 µM (inactive) | > 100 µM (inactive) | > 100 µM (inactive) | > 100 µM (inactive) | > 100 µM (inactive) | > 100 µM (inactive) |  | > 100 µM (inactive) | > 100 µM (inactive) | > 100 µM (inactive) | > 100 µM (inactive) | > 100 µM (inactive) | > 100 µM (inactive) |  | > 100 µM (inactive) |  | 
11 | CCOC(=O)CCC(NC(=O)OCc1ccccc1)C(=O)NC(CCC(=O)OCC)C(=O)NN (configuration not stated) (Cbz-Glu(OEt)-Glu(OEt)-NHNH2; configuration not given here) |  | > 100 µM (inactive) | > 100 µM (inactive) | > 100 µM (inactive) |  | > 100 µM (inactive) | > 100 µM (inactive) | > 100 µM (inactive) | > 100 µM (inactive) | > 100 µM (inactive) | > 100 µM (inactive) | > 100 µM (inactive) | > 100 µM (inactive) | > 100 µM (inactive) | > 100 µM (inactive) | > 100 µM (inactive) | > 100 µM (inactive) |  | 
12 | CSC(=S)N/N=C(\C)c1ccc(S(=O)(=O)N(C)c2ccccc2)cc1 | 9.44 µM (inactive) | 56.5 µM (inactive) | 43.2 µM (inactive) | 34.4 µM (inactive) |  | 33.7 µM (inactive) | 19 µM (inactive) | > 100 µM (inactive) | 6.5 µM (inactive) | 21.9 µM (inactive) | 26.1 µM (inactive) | 98.4 µM (inactive) | 41.9 µM (inactive) | > 100 µM (inactive) | 24.7 µM (inactive) | 5.13 µM (inactive) | 14.3 µM (inactive) | 48.3 µM (inactive) | 
13 | NC1CNC(=O)c2c(Cl)sc(Cl)c21 (configuration not stated) | > 100 µM (inactive) | > 100 µM (inactive) | > 100 µM (inactive) | > 100 µM (inactive) | > 10 µM (inactive) | > 100 µM (inactive) | 78.5 µM (inactive) | > 100 µM (inactive) | > 10 µM (inactive) | > 100 µM (inactive) | > 100 µM (inactive) | > 100 µM (inactive) | > 100 µM (inactive) | > 100 µM (inactive) | > 100 µM (inactive) | > 100 µM (inactive) | > 100 µM (inactive) | > 100 µM (inactive) | 
14 | O=C1c2ccccc2-c2nc(-c3ccccc3)cc3c2c1nc1ccccc13 | 19.7 µM (inactive) | 16.7 µM (inactive) | 2.56 µM (inactive) | 25.2 µM (inactive) | 0.59 µM (active) | 14.2 µM (inactive) | 6.52 µM (inactive) | 12.9 µM (inactive) | 1.03 µM (active) | 15.6 µM (inactive) | 13.2 µM (inactive) | 17.6 µM (inactive) | 13.2 µM (inactive) | 29.4 µM (inactive) | 10.9 µM (inactive) |  | 10.2 µM (inactive) |  | 
15 | C=C1C[C@]23C[C@@]1(O)CC[C@H]2[C@@]12C=C[C@H](O)[C@@](C)(C(=O)O1)[C@H]2[C@@H]3C(=O)O [GIBBERELLIN A3] | > 100 µM (inactive) | > 100 µM (inactive) | > 100 µM (inactive) | > 100 µM (inactive) | > 100 µM (inactive) | > 100 µM (inactive) | > 100 µM (inactive) | > 100 µM (inactive) | > 100 µM (inactive) | > 100 µM (inactive) | > 100 µM (inactive) |  | > 100 µM (inactive) | > 100 µM (inactive) | > 100 µM (inactive) | > 100 µM (inactive) | > 100 µM (inactive) | > 100 µM (inactive) | > 100 µM (inactive)
16 | COc1ccc(C2NC(N)=C(C#N)C3=C2C(C)CCC3)cc1OC (configuration not stated) | > 100 µM (inactive) | 15.9 µM (inactive) | 56 µM (inactive) | 77.1 µM (inactive) | 14.6 µM (inactive) | 43.5 µM (inactive) | 2.75 µM (inactive) | 44.4 µM (inactive) | 14.5 µM (inactive) | 63.5 µM (inactive) | 40 µM (inactive) | 59.7 µM (inactive) | > 100 µM (inactive) | > 100 µM (inactive) | 41.8 µM (inactive) |  | > 100 µM (inactive) | 35.2 µM (inactive) | 
